Data set [1] in a line: Microdissolution of co-crystals versus free form in FaSSIF (pION Microdissolution Profiler). The data set is classed as physicochemical. As to conditions: for AUC (extent of dissolution), Mean / Dissolution Rate, Mean: FaSSIF pH 6.5, 15 mL at 37° C., 150 rpm, API powder 0.2 mg/mL, N = 4; for AUC (extent of dissolution), Mean: 180 min, trapezoidal rule. How it is done: The dissolution of the N-1 form of the citric acid and the succinic acid co-crystals of the compound of formula (I) were tested against that of the free form of the compound of formula (I). The dissolution properties, rate and extent, and peak solubility were tested in FaSSIF (fasted state simulated intestinal fluid).
This experiment was performed on a pION Microdissolution Profiler™ an API sparing, low volume dissolution instrument with UV fiber optics (UVFO) probes to measure real-time dissolution profile in biorelevant media. The experimental was run under the following conditions: • Apparatus: plon Microdissolution profiler • Media: FaSSIF, pH 6.5 • Volume: 15 mL at 37° C. • Stirring: 150 rpm with small stirrer bar • Dose: API powder at 0.2 mg/mL or 3 mg/vial • Study duration: 180 min
Time points: several time points to capture initial dissolution rate and through 180 min (typical time for absorption)
The results were analyzed using UVFO Analysis: Standard curve range 0-3 μg/mL; 10 mm path length probe windows; detection wavelength 315 nm; slope ˜17 μg/mL/AU; R2=0.99.

Data set [2] is described as follows: Pharmacokinetic study of co-crystal capsules in the dog model. The class given is in vivo. As to conditions: for Systemic absorption in the dog model: at relevant doses (5 mg capsule); for AUC0-24h, Mean / Cmax, Mean / Tmax: capsule, 5 mg/dog, pentagastrin pre-treated fasted male dogs, crossover in 4 dogs. How it is done: The co-crystals were tested using the following formulations: • 1. Succinic Acid co-crystal capsule (5 mg dose)—Pentagastrin pre-treated, fasted dogs • 2. Citric Acid co-crystal capsule (5 mg dose)—Pentagastrin pre-treated, fasted dogs
The Study Design is as follows:
Crossover in 4 fasted male dogs (˜10 kg); dose 5 mg/dog; flush with 50 mL water; 2-week washout between treatments; 8 blood sample points per treatments.

On to `COc1cc(OCc2csc(-c3ccc(C(=O)N(C)C)cc3)n2)c2cc(-c3cn4nc(OC)sc4n3)oc2c1` [Free form, 4-(4-(((6-Methoxy-2-(2-methoxyimidazo[2,1-b][1,3,4]thiadiazol-6-yl)benzofuran-4-yl)oxy)methyl)thiazol-2-yl)-N,N-dimethylbenzamide], for which, in data set [1], the “AUC (extent of dissolution), Mean” value was found to be 0 µg·min/mL and the “Dissolution Rate, Mean” value worked out at 0 µg/mL/min.

Take “4-(4-(((6-Methoxy-2-(2-methoxyimidazo[2,1-b][1,3,4]thiadiazol-6-yl)benzofuran-4-yl)oxy)methyl)thiazol-2-yl)-N,N-dimethylbenzamide: succinic acid co-crystal (1:0.5) [Example 1]”: in data set [1], the “Dissolution in FaSSIF compared with the free form” value is on record as “better than the free form”; the “AUC (extent of dissolution), Mean” value amounted to 272.622 µg·min/mL; the “Dissolution Rate, Mean” value stood at 0.144 µg/mL/min. Further, in data set [2], the “Systemic absorption in the dog model” value is “measurable systemic absorption”; the “AUC0-24h, Mean” value was 93.97 ng·h/mL; the “Cmax, Mean” value turned out to be 12.22 ng/mL; the Tmax (as a rule, the time from dosing to the highest level) is 1.5 h.

Consider “4-(4-(((6-Methoxy-2-(2-methoxyimidazo[2,1-b][1,3,4]thiadiazol-6-yl)benzofuran-4-yl)oxy)methyl)thiazol-2-yl)-N,N-dimethylbenzamide: citric acid co-crystal (1:1), form N-1 [Example 2]”, for which, in data set [1], the “Dissolution in FaSSIF compared with the free form” value is “better than the free form”; the “AUC (extent of dissolution), Mean” value came to 988.900 µg·min/mL; the “Dissolution Rate, Mean” value came out at 0.584 µg/mL/min. Besides, in data set [2], the “Systemic absorption in the dog model” value is on record as “measurable systemic absorption”; the “AUC0-24h, Mean” value stood at 161.61 ng·h/mL; the “Cmax, Mean” value is on record as 29.28 ng/mL; the Tmax worked out at 2.0 h.

Values taken from patent US12129264B2, “Crystalline forms of a PAR4 inhibitor” (BRISTOL-MYERS SQUIBB COMPANY, priority 2018, dated 2024).
